In US20120214811A1, “RAF INHIBITOR COMPOUNDS AND METHODS OF USE THEREOF” (priority 2009, published 2012):

The compounds below were run against T1, V600E full-length B-Raf (Homo sapiens, UniProt P15056, V600E) (assay: B-Raf IC50 assay (incorporation of radio labeled phosphate from [γ-33P]ATP into FSBA-modified wild-type MEK)). Settings: Example A assay; 4 μM ATP, 20 nM V600E full-length B-Raf, 60-minute incubation at 22° C.; read-out: BRAF V600E IC50.
T1 construct: 1 μM FSBA-MEK and 20 nM V600E full-length B-Raf; made in house; host or cells: Sf9 insect cells (baculovirus)
T1 sequence (P15056 whole entry V600E): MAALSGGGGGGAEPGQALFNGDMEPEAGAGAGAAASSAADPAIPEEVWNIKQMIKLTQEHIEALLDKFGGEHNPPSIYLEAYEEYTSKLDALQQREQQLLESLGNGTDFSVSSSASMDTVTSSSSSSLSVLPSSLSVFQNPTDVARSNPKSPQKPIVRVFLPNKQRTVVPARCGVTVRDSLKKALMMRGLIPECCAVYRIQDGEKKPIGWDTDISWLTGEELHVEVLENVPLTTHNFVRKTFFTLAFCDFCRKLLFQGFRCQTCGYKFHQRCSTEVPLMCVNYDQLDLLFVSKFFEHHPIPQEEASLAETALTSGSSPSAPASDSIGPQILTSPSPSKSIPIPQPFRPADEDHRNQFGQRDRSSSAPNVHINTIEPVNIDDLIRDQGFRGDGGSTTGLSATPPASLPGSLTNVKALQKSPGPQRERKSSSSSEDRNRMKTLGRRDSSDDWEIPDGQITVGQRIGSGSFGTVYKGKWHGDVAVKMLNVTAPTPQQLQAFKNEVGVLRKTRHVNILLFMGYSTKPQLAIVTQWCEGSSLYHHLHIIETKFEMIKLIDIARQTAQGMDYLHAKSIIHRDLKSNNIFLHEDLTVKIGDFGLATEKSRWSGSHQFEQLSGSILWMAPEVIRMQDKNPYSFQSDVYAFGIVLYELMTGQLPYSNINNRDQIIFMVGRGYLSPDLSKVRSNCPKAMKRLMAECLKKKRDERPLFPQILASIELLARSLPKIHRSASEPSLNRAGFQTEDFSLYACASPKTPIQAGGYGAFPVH
Type: biochemical
Text: Determining the activity of Raf in the sample is possible by a number of direct and indirect detection methods (US 2004/0082014). Activity of human recombinant B-Raf protein may be assessed in vitro by assay of the incorporation of radio labeled phosphate to recombinant MAP kinase (MEK), a known physiologic substrate of B-Raf, according to US 2004/0127496 and WO 03/022840. The activity/inhibition of V600E full-length B-Raf was estimated by measuring the incorporation of radio labeled phosphate from [γ-^33]ATP into FSBA-modified wild-type MEK (see Example A).
Activity of human recombinant B-Raf protein may be assessed in vitro by assay of the incorporation of radio labeled phosphate to recombinant MAP kinase (MEK), a known physiologic substrate of B-Raf, according to US 2004/0127496 and WO 03/022840. Catalytically active human recombinant B-Raf protein is obtained by purification from sf9 insect cells infected with a human B-Raf recombinant baculovirus expression vector.
The activity/inhibition of V600E full-length B-Raf was estimated by measuring the incorporation of radio labeled phosphate from [γ-^33P]ATP into FSBA-modified wild-type MEK. The 30-μL assay mixtures contained 25 mM Na Pipes, pH 7.2, 100 mM KCl, 10 mM MgCl2, 5 mM β-glycerophosphate, 100 μM Na Vanadate, 4 μM ATP, 500 nCi [γ-^33P]ATP, 1 μM FSBA-MEK and 20 nM V600E full-length B-Raf. Incubations were carried out at 22° C. in a Costar 3365 plate (Corning). Prior to the assay, the B-Raf and FSBA-MEK were preincubated together in assay buffer at 1.5× (20 μL of 30 nM and 1.5 μM, respectively) for 15 minutes, and the assay was initiated by the addition of 10 μL of 10 μM ATP. Following the 60-minute incubation, the assay mixtures were quenched by the addition of 100 μL of 25% TCA, the plate was mixed on a rotary shaker for 1 minute, and the product was captured on a Perkin-Elmer GF/B filter plate using a Tomtec Mach III Harvester. After sealing the bottom of the plate, 35 μL of Bio-Safe II (Research Products International) scintillation cocktail were added to each well and the plate was top-sealed and counted in a Topcount NXT (Packard).

Row | Compound | IC50 [nM]
1 | CCCS(=O)(=O)Nc1ccc(F)c(NC(=O)Nc2cc(N)ncn2)c1F [Example 2, N-(3-(3-(6-aminopyrimidin-4-yl)ureido)-2,4-difluorophenyl)propane-1-sulfonamide] | 142
2 | CCCS(=O)(=O)Nc1ccc(F)c(NC(=O)Nc2cc(NC(C)C)ncn2)c1F [Example 4, N-(2,4-difluoro-3-(3-(6-(isopropylamino)pyrimidin-4-yl)ureido)phenyl)propane-1-sulfonamide] | 165
3 | CCCS(=O)(=O)Nc1ccc(F)c(NC(=O)Nc2cc(NCCO)ncn2)c1F [Example 5, N-(2,4-difluoro-3-(3-(6-(2-hydroxyethylamino)pyrimidin-4-yl)ureido)phenyl)propane-1-sulfonamide] | 63.5
4 | CCCS(=O)(=O)Nc1ccc(F)c(NC(=O)Nc2cc(NCCN3CCOCC3)ncn2)c1F [Example 6, N-(2,4-difluoro-3-(3-(6-(2-morpholinoethylamino)pyrimidin-4-yl)ureido)phenyl)propane-1-sulfonamide] | 535
5 | CCCS(=O)(=O)Nc1ccc(F)c(NC(=O)Nc2ccncn2)c1F [Example 7, Propane-1-sulfonic acid [2,4-difluoro-3-(3-pyrimidin-4-yl-ureido)-phenyl]-amide] | 1390
6 | CCCS(=O)(=O)Nc1ccc(F)c(NC(=O)N(C)c2ccncn2)c1F [Example 11, Propane-1-sulfonic acid [2,4-difluoro-3-(3-methyl-3-pyrimidin-4-yl-ureido)-phenyl]-amide] | 1230
7 | CCCS(=O)(=O)Nc1ccc(F)c(NC(=O)N(C)c2cc(N)ncn2)c1F [Example 15, N-(3-(3-(6-aminopyrimidin-4-yl)-3-methylureido)-2,4-difluorophenyl)propane-1-sulfonamide] | 83.3
8 | CCCS(=O)(=O)Nc1ccc(F)c(NC(=O)N(C)c2cc(NCCO)ncn2)c1F [Example 16, N-(2,4-difluoro-3-(3-(6-(2-hydroxyethylamino)pyrimidin-4-yl)-3-methylureido)phenyl) propane-1-sulfonamide] | 121
9 | CCCS(=O)(=O)Nc1ccc(F)c(NC(=O)N(C)c2cc(NC)ncn2)c1F [Example 17, N-(2,4-difluoro-3-(3-methyl-3-(6-(methylamino)pyrimidin-4-yl)ureido)phenyl)propane-1-sulfonamide] | 84.6
10 | CCCS(=O)(=O)Nc1ccc(F)c(NC(=O)N(C)c2cc(NC3CCOC3)ncn2)c1F (stereo not shown) [Example 19, N-(2,4-difluoro-3-(3-methyl-3-(6-(tetrahydrofuran-3-ylamino)pyrimidin-4-yl)ureido)phenyl)propane-1-sulfonamide] | 283
11 | CCCS(=O)(=O)Nc1ccc(F)c(NC(=O)N(C)c2cc(NC(C)C)ncn2)c1F [Example 21, N-(2,4-difluoro-3-(3-(6-(isopropylamino)pyrimidin-4-yl)-3-methylureido)phenyl) propane-1-sulfonamide] | 132
12 | CCCS(=O)(=O)Nc1ccc(F)c(NC(=O)N(C)c2cc(NCCN3CCOCC3)ncn2)c1F [Example 22, N-(2,4-difluoro-3-(3-methyl-3-(6-(2 morpholinoethylamino)pyrimidin-4-yl)ureido)phenyl)propane-1-sulfonamide] | 616
13 | CCCS(=O)(=O)Nc1ccc(F)c(NC(=O)Nc2ncncn2)c1F [Example 24, N-(3-(3-1,3,5-Triazin-2-ylureido)-2,4-difluorophenyl)propane-1-sulfonamide] | 122
14 | CCCS(=O)(=O)Nc1ccc(F)c(NC(=O)Nc2ncncc2-c2ccc(Cl)cc2)c1F [Example 25] | 288
15 | CCCS(=O)(=O)Nc1ccc(F)c(NC(=O)Nc2ncnc(NC)n2)c1F [Example 26, N-(2,4-Difluoro-3-(3-(4-(methylamino)-1,3,5-triazin-2-yl)ureido)phenyl)propane-1-sulfonamide] | 235

Further lines, results first:

Row | IC50 [nM] | Compound
16 | 28 | CCCS(=O)(=O)Nc1ccc(F)c(NC(=O)Nc2cc(NCC)ncn2)c1F [Example 1, Propane-1-sulfonic acid {3-[3-(6-ethylamino-pyrimidin-4-yl)-ureido]-2,4-difluoro-phenyl}-amide]
17 | 31.2 | CCCS(=O)(=O)Nc1ccc(F)c(NC(=O)Nc2cc(NC)ncn2)c1F [Example 3, N-(2,4-difluoro-3-(3-(6-(methylamino)pyrimidin-4-yl)ureido)phenyl)propane-1-sulfonamide]
18 | 19.8 | CCCS(=O)(=O)Nc1ccc(F)c(NC(=O)Nc2cc(NC)ncn2)c1Cl [Example 8, Propane-1-sulfonic acid {2-chloro-4-fluoro-3-[3-(6-methylamino-pyrimidin-4-yl)-ureido]-phenyl}-amide]
19 | 8.9 | CCCS(=O)(=O)Nc1ccc(Cl)c(NC(=O)Nc2cc(NC)ncn2)c1F [Example 9, N-4-Chloro-2-fluoro-3-(3-((6-(methylamino)pyrimidin-4-yl)ureido)phenyl)propane-1-sulfonamide]
20 | 19.2 | CCCS(=O)(=O)Nc1ccc(Cl)c(NC(=O)Nc2cc(NCc3ccccc3)ncn2)c1F [Example 10, N-(3-(3-(6-(Benzylamino)pyrimidin-4-yl)ureido)-4-chloro-2-fluorophenyl)propane-1-sulfonamide]
21 | 59.1 | CCCS(=O)(=O)Nc1ccc(F)c(NC(=O)N(C)c2cc(Nc3ccn(C)n3)ncn2)c1F [Example 12, Propane-1-sulfonic acid (2,4-difluoro-3-{3-methyl-3-[6-(1-methyl-1H-pyrazol-3-ylamino)-pyrimidin-4-yl]-ureido}-phenyl)-amide]
22 | 21.8 | CCCS(=O)(=O)Nc1ccc(F)c(NC(=O)N(C)c2cc(NC3CC3)ncn2)c1F [Example 13, N-(3-(3-(6-(cyclopropylamino)pyrimidin-4-yl)-3-methylureido)-2,4-difluorophenyl)propane-1-sulfonamide]
23 | 25.6 | CCCS(=O)(=O)Nc1ccc(F)c(NC(=O)N(C)c2cc(NCC)ncn2)c1F [Example 14, N-(3-(3-(6-(ethylamino)pyrimidin-4-yl)-3-methylureido)-2,4-difluorophenyl)propane-1-sulfonamide]
24 | 83.6 | CCCS(=O)(=O)Nc1ccc(F)c(NC(=O)N(C)c2cc(NC3CCC3)ncn2)c1F [Example 18, N-(3-(3-(6-(cyclobutylamino)pyrimidin-4-yl)-3-methylureido)-2,4-difluorophenyl)propane-1-sulfonamide]
25 | 33.4 | CCCS(=O)(=O)Nc1ccc(F)c(NC(=O)N(C)c2cc(NN)ncn2)c1F [Example 20, N-(2,4-difluoro-3-(3-(6-hydrazinylpyrimidin-4-yl)-3-methylureido)phenyl) propane-1-sulfonamide]
26 | 13.4 | CCCS(=O)(=O)Nc1ccc(F)c(NC(=O)Nc2ncnc(Nc3ccc(F)cc3)n2)c1F [Example 23, N-(2,4-Difluoro-3-(3-(4-(4-fluorophenylamino)-1,3,5-triazin-2-yl)ureido)phenyl)propane-1-sulfonamide]

Each compound was assayed on basal ERK1/2 phosphorylation (assay: Cellular ERK 1/2 phosphorylation assay in Malme-3M cells). Settings: Homo sapiens, 1 hour incubation, pERK signal normalized to total ERK, read-out: IC50, inhibition of basal ERK1/2 phosphorylation.
Type: cell-based
Method: Inhibition of basal ERK1/2 phosphorylation was determined by the following in vitro […], which comprises incubating cells with a compound of Formula II for 1 hour and quantifying the fluorescent pERK signal on fixed cells and normalizing to total ERK signal.
Materials and Methods: Malme-3M cells were obtained from ATCC and grown in RPMI-1640 supplemented with 10% fetal bovine serum. Cells were plated in 96-well plates at 24,000 cells/well and allowed to attach for 16-20 hours at 37° C., 5% CO2. The media was removed, and DMSO-diluted compounds were added in RPMI-1640 at a final concentration of 1% DMSO. The cells were incubated with the compounds for 1 hour at 37° C., 5% CO2. The cells were washed with PBS and fixed in 3.7% formaldehyde in PBS for 15 minutes. This was followed by washing in PBS/0.05% Tween20 and permeabilizing in −20° C. 100% MeOH for 15 minutes. Cells were washed in PBS/0.05% Tween20 then blocked in Odyssey blocking buffer (LI-COR Biosciences) for 1 hour. Antibodies to phosphorylated ERK (1:400, Cell Signaling #9106, monoclonal) and total ERK (1:400, Santa Cruz Biotechnology #sc-94, polyclonal) were added to the cells and incubated 16-20 hours at 4° C. […] Cells were then washed and analyzed for fluorescence at both wavelengths using the Odyssey Infrared Imaging System (LI-COR Biosciences). […]

Row | Compound | IC50 [nM]
27 | CCCS(=O)(=O)Nc1ccc(F)c(NC(=O)Nc2cc(N)ncn2)c1F [Example 2, N-(3-(3-(6-aminopyrimidin-4-yl)ureido)-2,4-difluorophenyl)propane-1-sulfonamide] | ~438
28 | CCCS(=O)(=O)Nc1ccc(F)c(NC(=O)Nc2cc(NC)ncn2)c1Cl [Example 8, Propane-1-sulfonic acid {2-chloro-4-fluoro-3-[3-(6-methylamino-pyrimidin-4-yl)-ureido]-phenyl}-amide] | ~153
